Test results published in patent US20240116985A1, “STAPLED PEPTIDES AND METHODS THEREOF” (priority 2020, published 2024).
Values after ≈ are worked out from the molar mass of the structure shown. Like-named read-outs stand apart in the source and are kept apart here.

Legend:
[1] = Solubility in PBS; type: physicochemical
Method in brief: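 Read-out is the HPLC peak area of the supernatant from ultracentrifuged PBS solution, scaled against a 50 μM peptide DMSO injection; value reported as [(PBS area)/(DMSO area)]*50 uM.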

[2] = CHI Log D procedure; type: physicochemical; conditions: for CHI Log D: pH 7.4; for logD / chromatographic logD: pH 7.4, CHI Log D
[3] = target: T1, full-length beta-Catenin (Uniprot ID P35222) (Homo sapiens, UniProt P35222); assay: Fluorescence polarization IC50 (beta-catenin / 5FAM-TCF4 10-53 competition); type: binding
T1 construct: 10 nM full-length beta-Catenin (Uniprot ID P35222)
T1 sequence (P35222 1-781): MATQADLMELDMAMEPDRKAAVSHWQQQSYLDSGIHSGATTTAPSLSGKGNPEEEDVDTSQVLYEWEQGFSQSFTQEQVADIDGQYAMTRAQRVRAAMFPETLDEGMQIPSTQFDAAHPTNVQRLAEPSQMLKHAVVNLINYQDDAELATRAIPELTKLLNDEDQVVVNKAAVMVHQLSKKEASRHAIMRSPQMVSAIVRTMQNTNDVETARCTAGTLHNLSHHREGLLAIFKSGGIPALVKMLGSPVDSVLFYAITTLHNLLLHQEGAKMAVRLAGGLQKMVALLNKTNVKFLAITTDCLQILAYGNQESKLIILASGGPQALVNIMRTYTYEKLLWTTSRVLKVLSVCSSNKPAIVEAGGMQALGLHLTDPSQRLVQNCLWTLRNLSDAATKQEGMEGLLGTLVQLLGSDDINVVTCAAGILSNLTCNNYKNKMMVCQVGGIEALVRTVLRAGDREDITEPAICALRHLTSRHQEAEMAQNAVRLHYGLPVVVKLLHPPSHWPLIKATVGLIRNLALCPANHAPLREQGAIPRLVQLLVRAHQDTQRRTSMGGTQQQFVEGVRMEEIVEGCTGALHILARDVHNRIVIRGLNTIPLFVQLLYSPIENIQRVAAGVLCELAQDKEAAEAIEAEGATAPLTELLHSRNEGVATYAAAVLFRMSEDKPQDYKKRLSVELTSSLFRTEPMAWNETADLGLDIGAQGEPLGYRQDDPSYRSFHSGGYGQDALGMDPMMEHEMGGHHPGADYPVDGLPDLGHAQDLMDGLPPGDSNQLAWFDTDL

[4] = fluorescence polarization, beta-catenin, read-out: FP EC50
[5] = fluorescence polarization, read-out: beta-Catenin FP IC50

| Solubility [1] | CHI Log D [2] | IC50 [3, 4] | IC50 [3, 5] | logD [2] | Solubility ([1]; Solubility (uM)) | chromatographic logD [2] | IC50 ([3]; read-out: FP EC50) | SMILES |
| --- | --- | --- | --- | --- | --- | --- | --- | --- |
| 48 µM (≈ 87 µg/mL) | 2.136 | 2620 nM | 2620 nM | – | – | – | – | CC(=O)N1CCC[C@]12CC=CCCCC1(CCCC=CCCCCCC[C@@](C)(C(=O)N[C@@H](Cc3ccccc3)C(=O)N[C@@H](Cc3csc4ccccc34)C(=O)N[C@@H](CCC(N)=O)C(N)=O)NC(=O)[C@H](C(C)C)NC(=O)[C@H](Cc3ccccn3)NC(=O)[C@H](C)NC(=O)[C@H](C)NC(=O)[C@H](CCC(=O)O)NC(=O)[C@H](CC(=O)O)NC1=O)NC(=O)[C@H](C)NC(=O)[C@H](CC(=O)O)NC2=O (stereo partly drawn) [I-387, Ac-PL3-Asp-Ala-B5-Asp-Glu-Ala-Ala-2pyrA-Val-S8-Phe-BztA-Gln-NH2] |
| 10 µM (≈ 18.5 µg/mL) | 2.585 | 1910 nM | 1910 nM | – | – | – | – | CC(=O)N1CCC[C@]12CC=CCCCC1(CCCC=CCCCCCC[C@@](C)(C(=O)N[C@@H](Cc3ccccc3)C(=O)N[C@@H](Cc3csc4ccccc34)C(=O)N[C@@H](CCC(N)=O)C(N)=O)NC(=O)[C@H](C(C)C)NC(=O)[C@H](Cc3cccc(F)c3F)NC(=O)[C@H](C)NC(=O)[C@H](C)NC(=O)[C@H](CCC(=O)O)NC(=O)[C@H](CC(=O)O)NC1=O)NC(=O)[C@H](C)NC(=O)[C@H](CC(=O)O)NC2=O (stereo partly drawn) [I-391, Ac-PL3-Asp-Ala-B5-Asp-Glu-Ala-Ala-23FF-Val-S8-Phe-BztA-Gln-NH2] |
| – | – | – | 2150 nM | – | 46 µM (≈ 86.6 µg/mL) | 1.85 | – | CC(=O)N1CCC[C@]12CC=CCCCC1(CCCC=CCOC(=O)N(C)CCC[C@@](C)(C(=O)N[C@@H](Cc3cccc(F)c3)C(=O)N[C@@H](Cc3csc4ccccc34)C(=O)N[C@@H](CCC(N)=O)C(N)=O)NC(=O)[C@H](C(C)C)NC(=O)[C@H](Cc3ccccc3)NC(=O)[C@H](C)NC(=O)[C@H](C)NC(=O)[C@H](Cc3c[nH]cn3)NC(=O)[C@H](CC(=O)O)NC1=O)NC(=O)[C@H](C)NC(=O)[C@H](CC(=O)O)NC2=O (stereo partly drawn) [I-398, Ac-PL3-Asp-Ala-B5-Asp-His-Ala-Ala-Phe-Val-SeN-3FF-BztA-Gln-NH2] |
| 48 µM (≈ 84.2 µg/mL) | 2.741 | – | 70 nM | – | – | – | 70 nM | CC[C@H](C)[C@@H]1NC(=O)[C@H](CC(=O)O)NC(=O)[C@]2(CC=CCCCC3(CCCC=CCCCCCC[C@@](C)(C(=O)N[C@@H](Cc4ccccc4)C(=O)N[C@@H](Cc4csc5ccccc45)C(N)=O)NC(=O)[C@H](CCC(N)=O)NC(=O)[C@H](Cc4ccccc4)NC(=O)[C@H](C)NC(=O)[C@H](C)NC(=O)[C@H](CCC(=O)O)NC(=O)[C@H](CC(=O)O)NC3=O)NC1=O)CCCN2C(C)=O (stereo partly drawn) [I-409, Ac-PL3-Asp-Ile-B5-Asp-Glu-Ala-Ala-Phe-Gln-S8-Phe-BztA-NH2] |
| 50 µM (≈ 91.3 µg/mL) | – | – | 189 nM | – | – | 2.57 | – | CCCC[C@@H]1NC(=O)[C@H](CC(=O)O)NC(=O)[C@]2(CC=CCCCC3(CCCC=CCCCCCC[C@@](C)(C(=O)N[C@@H](Cc4ccccc4)C(=O)N[C@@H](Cc4csc5ccccc45)C(=O)N[C@@H](CCC(N)=O)C(N)=O)NC(=O)[C@H](C)NC(=O)[C@H](Cc4ccccc4)NC(=O)[C@H](C)NC(=O)[C@H](C)NC(=O)[C@H](CCC(=O)O)NC(=O)[C@H](CC(=O)O)NC3=O)NC1=O)CCCN2C(C)=O (stereo partly drawn) [I-411, Ac-PL3-Asp-nLeu-B5-Asp-Glu-Ala-Ala-Phe-Ala-S8-Phe-BztA-Gln-NH2] |
| 19 µM (≈ 35.4 µg/mL) | 2.096 | – | 3420 nM | – | – | – | 3420 nM | CC(=O)N1CCC[C@]12CC=CCCCC1(CCCC=CCCCCCC[C@@](C)(C(=O)N[C@@H](Cc3ccccc3)C(=O)N[C@@H](Cc3csc4ccccc34)C(=O)N[C@@H](CCC(N)=O)C(N)=O)NC(=O)[C@H](CCC(N)=O)NC(=O)[C@H](Cc3ccccc3)NC(=O)[C@H](C)NC(=O)[C@H](C)NC(=O)[C@H](CCC(=O)O)NC(=O)[C@H](Cc3nn[nH]n3)NC1=O)NC(=O)[C@H](C)NC(=O)[C@H](CC(=O)O)NC2=O (stereo partly drawn) [I-414, Ac-PL3-Asp-Ala-B5-tetz-Glu-Ala-Ala-Phe-Gln-S8-Phe-BztA-Gln-NH2] |

The remaining lines, values behind:

| SMILES | Solubility [1] | CHI Log D [2] | IC50 [3, 4] | IC50 [3, 5] | logD [2] | Solubility ([1]; Solubility (uM)) | chromatographic logD [2] | IC50 ([3]; read-out: FP EC50) |
| --- | --- | --- | --- | --- | --- | --- | --- | --- |
| CC(=O)N1CCC[C@]12CC=CCCCC1(CCCC=CCCCCCC[C@@](C)(C(=O)N[C@@H](Cc3ccccc3)C(=O)N[C@@H](Cc3csc4ccccc34)C(=O)N[C@@H](CCC(N)=O)C(N)=O)NC(=O)[C@H](C(C)C)NC(=O)[C@H](Cc3cccc(F)c3F)NC(=O)[C@H](C)NC(=O)[C@H](C)NC(=O)[C@H](CCC(=O)O)NC(=O)[C@H](CC(=O)O)NC1=O)NC(=O)[C@H](C)NC(=O)[C@H](CC(=O)O)NC2=O (stereo partly drawn) [I-390, Ac-PL3-Asp-Ala-B5-Asp-Glu-Ala-Ala-23FF-Val-S8-Phe-BztA-Gln-NH2] | 10 µM (≈ 18.5 µg/mL) | 2.587 | 3420 nM | 3420 nM | – | – | – | – |
| CC(=O)N1CCC[C@]12CC=CCCCC1(CCCC=CCCCCCC[C@@](C)(C(=O)N[C@@H](Cc3ccccc3)C(=O)N[C@@H](Cc3csc4ccccc34)C(=O)N[C@@H](CCC(N)=O)C(N)=O)NC(=O)[C@H](C(C)C)NC(=O)[C@H](CC3CCCC3)NC(=O)[C@H](C)NC(=O)[C@H](C)NC(=O)[C@H](CCC(=O)O)NC(=O)[C@H](CC(=O)O)NC1=O)NC(=O)[C@H](C)NC(=O)[C@H](CC(=O)O)NC2=O (stereo partly drawn) [I-392, Ac-PL3-Asp-Ala-B5-Asp-Glu-Ala-Ala-CypA-Val-S8-Phe-BztA-Gln-NH2] | 10 µM (≈ 18 µg/mL) | – | – | 5000 nM | 2.52 | – | – | – |
| CC(=O)N1CCC[C@]12CC=CCCCC1(CCCC=CCCCCCC[C@@](C)(C(=O)N[C@@H](CC3CCCC3)C(=O)N[C@@H](Cc3csc4ccccc34)C(=O)N[C@@H](CCC(N)=O)C(N)=O)NC(=O)[C@H](C(C)C)NC(=O)[C@H](Cc3ccccc3)NC(=O)[C@H](C)NC(=O)[C@H](C)NC(=O)[C@H](CCC(=O)O)NC(=O)[C@H](CC(=O)O)NC1=O)NC(=O)[C@H](C)NC(=O)[C@H](CC(=O)O)NC2=O (stereo partly drawn) [I-393, Ac-PL3-Asp-Ala-B5-Asp-Glu-Ala-Ala-Phe-Val-S8-CypA-BztA-Gln-NH2] | 10 µM (≈ 18 µg/mL) | – | – | 1950 nM | 2.64 | – | – | – |
| CC(=O)N1CCC[C@]12CC=CCCCC1(CCCC=CCCCCCC[C@@](C)(C(=O)N[C@@H](Cc3ccccc3)C(=O)N[C@@H](Cc3csc4ccccc34)C(=O)N[C@@H](CCC(N)=O)C(N)=O)NC(=O)[C@H](CCC(N)=O)NC(=O)[C@H](Cc3ccccc3)NC(=O)[C@H](C)NC(=O)[C@H](C)NC(=O)[C@H](CCC(=O)O)NC(=O)[C@H](CC(=O)O)NC1=O)NC(=O)[C@H](C)NC(=O)[C@H](CC(=O)O)NC2=O (stereo partly drawn) [I-406, Ac-PL3-Asp-Ala-B5-Asp-Glu-Ala-Ala-Phe-Gln-S8-Phe-BztA-Gln-NH2] | – | – | – | 94 nM | – | 28 µM (≈ 51.6 µg/mL) | 2.04 | – |
| CC[C@H](C)[C@@H]1NC(=O)[C@H](CC(=O)O)NC(=O)[C@]2(CC=CCCCC3(CCCC=CCCCCCC[C@@](C)(C(=O)N[C@@H](Cc4ccccc4)C(=O)N[C@@H](Cc4csc5ccccc45)C(N)=O)NC(=O)[C@H](CCC(N)=O)NC(=O)[C@H](Cc4ccccc4)NC(=O)[C@H](C)NC(=O)[C@H](C)NC(=O)[C@H](CCC(=O)O)NC(=O)[C@H](CC(=O)O)NC3=O)NC1=O)CCCN2C(C)=O (stereo partly drawn) [I-408, Ac-PL3-Asp-Ile-B5-Asp-Glu-Ala-Ala-Phe-Gln-S8-Phe-BztA-NH2] | 50 µM (≈ 87.8 µg/mL) | 2.674 | – | 120 nM | – | – | – | 120 nM |
| CC(=O)N1CCC[C@]12CC=CCCCC1(CCCC=CCCCCCC[C@@](C)(C(=O)N[C@@H](Cc3ccccc3)C(=O)N[C@@H](Cc3csc4ccccc34)C(=O)N[C@@H](CCC(N)=O)C(N)=O)NC(=O)[C@H](CCC(N)=O)NC(=O)[C@H](Cc3ccccc3)NC(=O)[C@H](C)NC(=O)[C@H](C)NC(=O)[C@H](CCC(=O)O)NC(=O)[C@H](CC(=O)O)NC1=O)NC(=O)[C@H](C(C)C)NC(=O)[C@H](CC(=O)O)NC2=O (stereo partly drawn) [I-410, Ac-PL3-Asp-Val-B5-Asp-Glu-Ala-Ala-Phe-Gln-S8-Phe-BztA-Gln-NH2] | 50 µM (≈ 93.5 µg/mL) | – | – | 50 nM | – | – | 2.26 | – |
| CC(=O)N1CCC[C@]12CC=CCCCC1(CCCC=CCCCCCC[C@@](C)(C(=O)N[C@@H](Cc3ccccc3)C(=O)N[C@@H](Cc3csc4ccccc34)C(=O)N[C@@H](CCC(N)=O)C(N)=O)NC(=O)[C@H](CCC(N)=O)NC(=O)[C@H](Cc3ccccc3)NC(=O)[C@H](C)NC(=O)[C@H](C)NC(=O)[C@H](Cc3nn[nH]n3)NC(=O)[C@H](CC(=O)O)NC1=O)NC(=O)[C@H](C)NC(=O)[C@H](CC(=O)O)NC2=O (stereo partly drawn) [I-413, Ac-PL3-Asp-Ala-B5-Asp-tetz-Ala-Ala-Phe-Gln-S8-Phe-BztA-Gln-NH2] | – | – | – | 90 nM | – | 31 µM (≈ 57.4 µg/mL) | 2 | – |
